Laboratory results from paper PMC8468439, “Oxazinethione Derivatives as a Precursor to Pyrazolone and Pyrimidine Derivatives: Synthesis, Biological Activities, Molecular Modeling, ADME, and Molecular Dynamics Studies” (Molecules, 2021).
≈ marks a conversion by molar mass, not a printed value.

Assays:
F. moniliform = experiment: Antimicrobial screening, hole-plate and filter disc; format: cell-based, Fusarium moniliform; settings: for A (activity): zone width of inhibition, compounds dissolved in 10% acetone
Method: (§1) All investigations were executed at the Biology department, Faculty of Science, Benha University, Egypt. The antimicrobial activities of all the synthesized molecules were determined in vitro, using the hole-plate and filter disc methodologies. The investigated compounds were dissolved in 10% acetone (v/v). The width of the inhibition zone indicated the potency of the antimicrobial activity: (-) no antimicrobial activity, (+) mild activity with the diameter of the zones equal to (0.5–0.7 cm), (++) moderate activity with the diameter of the zones equal to (1.1–1.2 cm), and (+++) marked activity with the diameter of the zones equal to (1.6–1.8 cm).

A. flavus = experiment: as above; format: cell-based, Aspergillus flavus; design: key to A (activity): (-) no activity; (+) mild activity with diameter zone of (0.5–0.7 cm); (++) moderate activity with diameter zone of (1.1–1.2 cm); (+++) marked with diameter zone of (1.6–1.8 cm); settings: for A (activity): zone width of inhibition, compounds dissolved in 10% acetone
Method: as §1

E. coli = experiment: as above; format: cell-based, Escherichia coli; design: key to A (activity): (-) no activity; (+) mild activity with diameter zone of (0.5–0.7 cm); (++) moderate activity with diameter zone of (1.1–1.2 cm); (+++) marked with diameter zone of (1.6–1.8 cm); settings: for A (activity): zone width of inhibition, compounds dissolved in 10% acetone
Method: as §1

S. aureus = experiment: as above; format: cell-based, Staphylococcus aureus; design: key to A (activity): (-) no activity; (+) mild activity with diameter zone of (0.5–0.7 cm); (++) moderate activity with diameter zone of (1.1–1.2 cm); (+++) marked with diameter zone of (1.6–1.8 cm); settings: for A (activity): zone width of inhibition, compounds dissolved in 10% acetone
Method: as §1

LCC-MK2 normal cell line = experiment: SRB cytotoxicity assay; format: cell-based; settings: 72 h, 3 days
Method: (§2) The cells were supplied by the Egyptian Holding Company for Biological Products and Vaccines (VACSERA) and then kept in the tissue culture unit. The growth of the cells was affected in RPMI-1640 medium, supplemented with 10% heat-inactivated FBS, 50 units/mL of penicillin, and […] of streptomycin, and maintained in a humidified atmosphere with 5% carbon dioxide. The cells were maintained as monolayer cultures by serial sub-culturing, with cell culture reagents obtained from Lonza (Basel, Switzerland). The antitumor activities of the complexes were assessed against three cell lines MCF-7 for breast cancer, Ovcar-3 for ovarian cancer, and Hela for cervical cancer. In addition, all the results obtained were compared and validated to the LCC-MK2 normal cell line. In the literature, the sulforhodamine B (SRB) assay method was applied to determine the cytotoxicity, as described in [39]. Exponentially growing cells were collected using 0.25% Trypsin-EDTA and seeded in 96-well plates at 1000–2000 cells/well in RBMI-1640-supplemented medium. The cells were kept in the medium for 24 h and then incubated for 3 days with various concentrations of the copper complexes. Following 3 days of treatment, the cells were fixed with 10% trichloroethanoic acid for 1 h at 4 °C. Wells were stained for 10 min at room temperature with 0.4% SRBC dissolved in 1% acetic acid. The plates were air-dried for 24 h, and the dye was dissolved in Tris-HCl for 5 min with shaking at 1600 rpm. An ELISA microplate reader (ChroMate-4300, FL, USA) was used to assess each well’s optical density (O.D.) at 564 nm. The IC50 values were calculated from a Boltzmann sigmoidal concentration-response curve using the nonlinear regression fitting models (Graph Pad, Prism Version 9).

Hela for cervical cancer = experiment: SRB cytotoxicity assay; format: cell-based; settings: Homo sapiens, 72 h, 3 days
Method: as §2

[1] = system: Ovcar-3 for ovarian cancer; experiment: SRB cytotoxicity assay; format: cell-based; settings: Homo sapiens, 72 h, 3 days
Method: as §2

MCF-7 for breast cancer = experiment: SRB cytotoxicity assay; format: cell-based; settings: Homo sapiens, MCF7, 72 h, 3 days
Method: as §2

SMILES | melting point | Mic (minimum inhibitory concentration) (F. moniliform) | A (activity) (F. moniliform) | A (activity) (A. flavus) | A (activity) (E. coli) | Mic (minimum inhibitory concentration) (S. aureus) | A (activity) (S. aureus) | IC50 (LCC-MK2 normal cell line) | IC50 (Hela for cervical cancer) | IC50 [1] | IC50 (MCF-7 for breast cancer) | Mic (minimum inhibitory concentration) (E. coli) | Mic (minimum inhibitory concentration) (A. flavus)
N#CC12C(=O)NC(=O)N=C1N=C(CN1C(=O)c3c(Br)c(Br)c(Br)c(Br)c3C1=O)OC2c1ccccc1 (stereo not shown) [Compound 2a] | 98 to 100 °C | 125 | + ((+) mild activity with diameter zone of (0.5–0.7 cm)) | - | - | 125 | + ((+) mild activity with diameter zone of (0.5–0.7 cm)) |  |  |  |  |  | 
N#CC12C(=O)NC(=S)N=C1N=C(CN1C(=O)c3c(Br)c(Br)c(Br)c(Br)c3C1=O)OC2c1ccccc1 (stereo not shown) [Compound 2b] |  | 125 | + ((+) mild activity with diameter zone of (0.5–0.7 cm)) | - | + ((+) mild activity with diameter zone of (0.5–0.7 cm)) | 250 | ++ ((++) moderate activity with diameter zone of (1.1–1.2 cm)) | 89.3 µg/mL (≈ 118 µM) | 22.8 µg/mL (≈ 30.1 µM) | 15.2 µg/mL (≈ 20.1 µM) | 13.8 µg/mL (≈ 18.2 µM) | 250 | 
N#CC12C(=N)NN=C1N=C(CN1C(=O)c3c(Br)c(Br)c(Br)c(Br)c3C1=O)OC2c1ccccc1 (stereo not shown) [Compound 3, 2-(tetrabromophalimidmethyl)-6-phenyl-5-yano-1,3-oxazino[4,5-d]-1,2-pyrazole2[H]-3-one] |  | 125 | + ((+) mild activity with diameter zone of (0.5–0.7 cm)) | + ((+) mild activity with diameter zone of (0.5–0.7 cm)) | + ((+) mild activity with diameter zone of (0.5–0.7 cm)) | 125 | + ((+) mild activity with diameter zone of (0.5–0.7 cm)) | 206 µg/mL (≈ 289 µM) | 9.14 µg/mL (≈ 12.8 µM) | 14.6 µg/mL (≈ 20.4 µM) | 15.5 µg/mL (≈ 21.7 µM) | 125 | 125
N#CC12C(=N)NC(=O)N=C1N=C(CN1C(=O)c3c(Br)c(Br)c(Br)c(Br)c3C1=O)OC2c1ccccc1 (stereo not shown) [Compound 4a] |  | 250 | + ((+) mild activity with diameter zone of (0.5–0.7 cm)) | +++ ((+++) marked with diameter zone of (1.6–1.8 cm)) | + ((+) mild activity with diameter zone of (0.5–0.7 cm)) |  | - | 68.9 µg/mL (≈ 92.9 µM) | 12.9 µg/mL (≈ 17.4 µM) | 15.9 µg/mL (≈ 21.4 µM) | 21.7 µg/mL (≈ 29.2 µM) | 250 | 250
N#CC12C(=N)NC(=S)N=C1N=C(CN1C(=O)c3c(Br)c(Br)c(Br)c(Br)c3C1=O)OC2c1ccccc1 (stereo not shown) [Compound 4b] |  | 125 | + ((+) mild activity with diameter zone of (0.5–0.7 cm)) | - | + ((+) mild activity with diameter zone of (0.5–0.7 cm)) | 250 | ++ ((++) moderate activity with diameter zone of (1.1–1.2 cm)) | 170 µg/mL (≈ 225 µM) | 14.8 µg/mL (≈ 19.5 µM) | 11.2 µg/mL (≈ 14.8 µM) | 16.6 µg/mL (≈ 21.8 µM) | 250 | 
N#CC12C(=O)NN=C1N=C(CN1C(=O)c3c(Br)c(Br)c(Br)c(Br)c3C1=O)OC2c1ccccc1 (stereo not shown) [Compound 5, 2-(tetrabromophalimidmethyl)-6-phenyl-5-yano-1,3-oxazino[4,5-d]-1,2-pyrazole2[H]-3-imide] |  | 250 | + ((+) mild activity with diameter zone of (0.5–0.7 cm)) | +++ ((+++) marked with diameter zone of (1.6–1.8 cm)) | ++ ((++) moderate activity with diameter zone of (1.1–1.2 cm)) | 250 | ++ ((++) moderate activity with diameter zone of (1.1–1.2 cm)) | 191 µg/mL (≈ 267 µM) | 5.69 µg/mL (≈ 7.96 µM) | 10.1 µg/mL (≈ 14.1 µM) | 12.3 µg/mL (≈ 17.2 µM) | 250 | 250
